In PubChem BioAssay AID1963435 (Molecular Pharmacology Branch, DTP, NCI, 2024):

Tested on: PANC-1 complex spheroid growth, percent test/control
Assay: Anticancer human tumor PANC-1 cell line growth inhibition [Asc];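 note: spheroids exposed to agents for 7 days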;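 for viability, T/C: percent viability relative to DMSO vehicle wells taken as 100%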
Details: for IC50: curve of first compound; for viability, T/C: stronger effect = lower value
Summary of the method: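 Complex solid-tumor spheroids incorporating human endothelial and mesenchymal stem cells received single agents or combinations over half-log dilution ranges anchored to clinical Cmax.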

## C=C(F)C(=O)N1CCN(c2nc(OCC3CCCN3C)nc3c2CCN(c2cccc4cccc(Cl)c24)C3)CC1CC#N (configuration not stated) + CCN1C(C(=O)NC23CCC(C(=O)O)(CC2)CC3)C(c2cccc(Cl)c2F)C2(C(=O)Nc3cc(Cl)ccc32)C12CCCCC2
Second compound 0.00949 µM
  IC50: 7.22 µM
Second compound 0.03 µM
  IC50: 6.88 µM
Second compound 0.0949 µM
  IC50: 6.94 µM
Second compound 0.3 µM
  IC50: 7.25 µM
Second compound 0.949 µM
  IC50: 7.02 µM
Second compound 3 µM
  IC50: 7.78 µM
Second compound 0.00949 µM, first compound 0.0316 µM
  viability, T/C: 99%
Second compound 0.00949 µM, first compound 0.1 µM
  viability, T/C: 89.5%
Second compound 0.00949 µM, first compound 0.316 µM
  viability, T/C: 88.4%
Second compound 0.00949 µM, first compound 1 µM
  viability, T/C: 98.5%
Second compound 0.00949 µM, first compound 3.16 µM
  viability, T/C: 105%
Second compound 0.00949 µM, first compound 10 µM
  viability, T/C: 31.7%
Second compound 0.03 µM, first compound 0.0316 µM
  viability, T/C: 103%
Second compound 0.03 µM, first compound 0.1 µM
  viability, T/C: 96.7%
Second compound 0.03 µM, first compound 0.316 µM
  viability, T/C: 97%
Second compound 0.03 µM, first compound 1 µM
  viability, T/C: 97.7%
Second compound 0.03 µM, first compound 3.16 µM
  viability, T/C: 88%
Second compound 0.03 µM, first compound 10 µM
  viability, T/C: 31.6%
Second compound 0.0949 µM, first compound 0.0316 µM
  viability, T/C: 105%
Second compound 0.0949 µM, first compound 0.1 µM
  viability, T/C: 102%
Second compound 0.0949 µM, first compound 0.316 µM
  viability, T/C: 108%
Second compound 0.0949 µM, first compound 1 µM
  viability, T/C: 109%
Second compound 0.0949 µM, first compound 3.16 µM
  viability, T/C: 106%
Second compound 0.0949 µM, first compound 10 µM
  viability, T/C: 24.1%
Second compound 0.3 µM, first compound 0.0316 µM
  viability, T/C: 99.5%
Second compound 0.3 µM, first compound 0.1 µM
  viability, T/C: 93.1%
Second compound 0.3 µM, first compound 0.316 µM
  viability, T/C: 103%
Second compound 0.3 µM, first compound 1 µM
  viability, T/C: 108%
Second compound 0.3 µM, first compound 3.16 µM
  viability, T/C: 100%
Second compound 0.3 µM, first compound 10 µM
  viability, T/C: 30.5%
Second compound 0.949 µM, first compound 0.0316 µM
  viability, T/C: 117%
Second compound 0.949 µM, first compound 0.1 µM
  viability, T/C: 104%
Second compound 0.949 µM, first compound 0.316 µM
  viability, T/C: 114%
Second compound 0.949 µM, first compound 1 µM
  viability, T/C: 109%
Second compound 0.949 µM, first compound 3.16 µM
  viability, T/C: 97.1%
Second compound 0.949 µM, first compound 10 µM
  viability, T/C: 28.9%
Second compound 3 µM, first compound 0.0316 µM
  viability, T/C: 112%
Second compound 3 µM, first compound 0.1 µM
  viability, T/C: 108%
Second compound 3 µM, first compound 0.316 µM
  viability, T/C: 115%
Second compound 3 µM, first compound 1 µM
  viability, T/C: 126%
Second compound 3 µM, first compound 3.16 µM
  viability, T/C: 96.7%
Second compound 3 µM, first compound 10 µM
  viability, T/C: 37%
